In assay [1] the target is T1, PDE4D (Homo sapiens, UniProt Q08499).
T1 construct: PDE4D: The catalytic domain of human PDE4B from S3 16-V692; His6 (N); thrombin cleavage site (N); made in house; host or cells: E. coli
Nature of the assay: PDE4 IC50 determination by Scintillation Proximity Assay, PDE4D. It counts as biochemical. The essentials: (§1)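 Radiometric SPA: PDE4B (80 ng/ml) or PDE4D (4 ng/ml) hydrolysed [^3H]cAMP over 30 min at 30°, and the bead-bound [^3H]AMP was scintillation-counted.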
A general note: SPA uses beads or plates that emit light when radiolabelled molecules are held near them.

Assay [2] addresses T2, PDE4B: The catalytic domain of human PDE4B from S152-S528 (Homo sapiens, UniProt Q07343).
T2 construct: His6 (N); thrombin cleavage site (N); made in house; host or cells: E. coli
Put plainly: PDE4 IC50 determination by Scintillation Proximity Assay, PDE4B. It counts as biochemical. The essentials:
as §1

The mark [3] stands for this setting: Table 1B, Formula I compounds, read-out: IC50 PDE4D.
The mark [4] stands for this setting: Table 1B, Formula I compounds, read-out: IC50 PDE4B.
Where [5] appears, read: first part of Table 2B (2-1 to 2-22), read-out: IC 50 vs. indicated assay PDE4D.
The mark [6] stands for this setting: first part of Table 2B (2-1 to 2-22), read-out: IC 50 vs. indicated assay PDE4B.

SMILES strings stand for the structures. Like-named read-outs stand apart in the source and are kept apart here.

T2 sequence (Q07343 with tags, fused parts or gaps): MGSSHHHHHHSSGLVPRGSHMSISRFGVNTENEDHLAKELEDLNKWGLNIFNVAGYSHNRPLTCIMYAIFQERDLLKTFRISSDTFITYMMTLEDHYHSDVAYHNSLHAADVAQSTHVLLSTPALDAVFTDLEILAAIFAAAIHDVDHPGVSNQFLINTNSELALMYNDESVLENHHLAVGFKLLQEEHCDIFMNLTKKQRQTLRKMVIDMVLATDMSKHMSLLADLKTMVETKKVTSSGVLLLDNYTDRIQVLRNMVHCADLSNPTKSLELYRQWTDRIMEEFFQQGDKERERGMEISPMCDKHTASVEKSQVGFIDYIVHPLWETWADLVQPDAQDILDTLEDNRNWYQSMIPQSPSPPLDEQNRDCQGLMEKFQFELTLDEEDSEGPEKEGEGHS
T1 sequence (Q08499 380-756): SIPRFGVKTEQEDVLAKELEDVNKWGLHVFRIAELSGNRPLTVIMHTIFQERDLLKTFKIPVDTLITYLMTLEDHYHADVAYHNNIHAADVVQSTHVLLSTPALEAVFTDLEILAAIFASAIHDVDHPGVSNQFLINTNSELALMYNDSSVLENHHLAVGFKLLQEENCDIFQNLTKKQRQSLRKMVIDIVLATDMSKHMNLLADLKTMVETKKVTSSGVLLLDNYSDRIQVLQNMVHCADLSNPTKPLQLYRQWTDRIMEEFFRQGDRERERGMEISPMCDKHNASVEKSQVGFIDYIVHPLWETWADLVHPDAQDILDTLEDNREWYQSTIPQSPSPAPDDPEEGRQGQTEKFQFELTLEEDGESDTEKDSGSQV

For the compound `CCOC(=O)c1cc(C(=O)c2sc(Nc3cccc(SC)c3)c(C#N)c2N)on1` [Compound 1-176, 5-[3-Amino-4-cyano-5-(3-methylsulfanyl-phenylamino)-thiophene-2-carbonyl]-isoxazole-3-carboxylic acid ethyl ester], the IC50 in assay [1] (setting [3]) and in assay [2] (setting [4]) was below 10 µM in each case.
Regarding `COc1ccc(C(=O)c2sc(NC3CC3)c(C#N)c2N)cc1` [Compound 1-178, 4-Amino-2-cyclopropylamino-5-(4-methoxy-benzoyl)-thiophene-3-carbonitrile], the IC50 in assay [1] (setting [3]) and in assay [2] (setting [4]) was below 10 µM throughout.
Consider `N#Cc1c(NC2CCCC2)sc(C(=O)C2CC2)c1N` [Compound 1-179, 4-Amino-2-cyclopentylamino-5-cyclopropanecarbonyl-thiophene-3-carbonitrile], for which the IC50 in assay [1] (setting [3]) and in assay [2] (setting [4]) was below 10 µM throughout.
For the compound `N#Cc1c(NC2CCCC2)sc(C(=O)c2ccc(Cl)cc2)c1N` [Compound 1-182, 4-Amino-5-(4-chloro-benzoyl)-2-cyclopentylamino-thiophene-3-carbonitrile], the IC50 in assay [1] (setting [3]) was above 10 µM; in assay [2] (setting [4]) it was below 10 µM.
For `COc1ccc(C(=O)c2sc(NC3CCCC3)c(C#N)c2N)cc1` [Compound 1-183, 4-Amino-2-cyclopentylamino-5-(4-methoxy-benzoyl)-thiophene-3-carbonitrile], in that order: below 10 µM and below 10 µM.
Taken in the same sequence, the figures for `N#Cc1c(Nc2ccc(Oc3ccccc3)cc2)sc(C(=O)C2CC2)c1N` [Compound 1-184, 4-Amino-5-cyclopropanecarbonyl-2-(4-phenoxy-phenylamino)-thiophene-3-carbonitrile] were below 10 µM and below 10 µM.
For `N#Cc1c(Nc2ccc(Oc3ccccc3)cc2)sc(C(=O)c2ccccc2)c1N` [Compound 1-185, 4-Amino-5-benzoyl-2-(4-phenoxy-phenylamino)-thiophene-3-carbonitrile], in that order: below 10 µM and below 10 µM.
In the case of `N#Cc1c(NC2CCCC2)sc(C(N)=O)c1N` [Compound 1-196, 3-Amino-4-cyano-5-cyclopentylamino-thiophene-2-carboxylic acid amide], the IC50 in assay [1] (setting [3]) and in assay [2] (setting [4]) was above 10 µM throughout.
Consider `N#Cc1c(Nc2ccc(Oc3ccccc3)cc2)sc(C(N)=O)c1N` [Compound 1-197, 3-Amino-4-cyano-5-(4-phenoxy-phenylamino)-thiophene-2-carboxylic acid amide], for which the IC50 in assay [1] (setting [3]) and in assay [2] (setting [4]) was above 10 µM in each case.
Consider `CCOC(=O)c1sc(NC2CCCC2)c(C#N)c1N` [Compound 1-199, 3-Amino-4-cyano-5-cyclopentylamino-thiophene-2-carboxylic acid ethyl ester], for which the IC50 in assay [1] (setting [3]) and in assay [2] (setting [4]) was below 10 µM each time.
For the compound `CCOC(=O)C(=O)c1sc(NC2CCCC2)c(C#N)c1N` [Compound 1-201, (3-Amino-4-cyano-5-cyclopentylamino-thiophen-2-yl)-oxo-acetic acid ethyl ester], the IC50 in assay [1] (setting [3]) and in assay [2] (setting [4]) was below 10 µM in each case.
`N#Cc1c(NC2CCCC2)sc(C(=O)c2ccsc2)c1N` [Compound 1-202, 4-Amino-2-cyclopentylamino-5-(thiophene-3-carbonyl)-thiophene-3-carbonitrile]: the IC50 in assay [1] (setting [3]) and in assay [2] (setting [4]) was below 10 µM in each case.
Regarding `N#Cc1c(NC2CCCC2)sc(C(=O)c2ccc(-c3ccccc3)s2)c1N` [Compound 1-203, 4-Amino-2-cyclopentylamino-5-(5-phenyl-thiophene-2-carbonyl)-thiophene-3-carbonitrile], the IC50 in assay [1] (setting [3]) and in assay [2] (setting [4]) was below 10 µM throughout.
As for `N#Cc1c(NC2CCCC2)sc(C(=O)c2cc(Br)no2)c1N` [Compound 1-207, 4-Amino-5-(3-bromo-isoxazole-5-carbonyl)-2-cyclopentylamino-thiophene-3-carbonitrile], the IC50 in assay [1] (setting [3]) and in assay [2] (setting [4]) was below 10 µM each time.
On to `CC(C)Nc1sc(C(=O)c2ccc(Cl)c(Cl)c2)c(N)c1C#N` [Compound 1-217, 4-Amino-5-(3,4-dichloro-benzoyl)-2-isopropylamino-thiophene-3-carbonitrile], for which the IC50 in assay [1] (setting [3]) and in assay [2] (setting [4]) was below 10 µM each time.
For `CN1CCN(C(=O)C(=O)c2sc(NC3CCCC3)c(C#N)c2N)CC1` [Compound 1-218, 4-Amino-2-cyclopentylamino-5-[2-(4-methyl-piperazin-1-yl)-2-oxo-acetyl]-carbonitrile], the IC50 in assay [1] (setting [3]) and in assay [2] (setting [4]) was above 10 µM each time.
As for `CCC(CC)Nc1sc(C(=O)c2ccc(Oc3ccccc3)cc2)c(N)c1C#N` [Compound 1-229, 4-Amino-2-(1-ethyl-propylamino)-5-(4-phenoxy-benzoyl)-thiophene-3-carbonitrile], the IC50 in assay [1] (setting [3]) and in assay [2] (setting [4]) was below 10 µM in each case.
`CC(C)Nc1sc(C(=O)c2ccc(Oc3ccccc3)cc2)c(N)c1C#N` [Compound 1-230, 4-Amino-2-isopropylamino-5-(4-phenoxy-benzoyl)-thiophene-3-carbonitrile]: the IC50 in assay [1] (setting [3]) and in assay [2] (setting [4]) was below 10 µM throughout.
In the case of `N#Cc1c(NC2CCCC2)sc(C(=O)c2ccc(Oc3ccccc3)cc2)c1N` [Compound 1-231, 4-Amino-2-cyclopentylamino-5-(4-phenoxy-benzoyl)-thiophene-3-carbonitrile], the IC50 in assay [1] (setting [3]) and in assay [2] (setting [4]) was below 10 µM in each case.
On to `CCC(C)Nc1sc(C(=O)c2ccc(Oc3ccccc3)cc2)c(N)c1C#N` (stereo not drawn) [Compound 1-232, 4-Amino-2-sec-butylamino-5-(4-phenoxy-benzoyl)-thiophene-3-carbonitrile], for which the IC50 in assay [1] (setting [3]) and in assay [2] (setting [4]) was below 10 µM throughout.
Consider `Cc1sc(-c2ccccc2)cc1C(=O)c1sc(NC2CCCC2)c(C#N)c1N` [Compound 1-234, 4-Amino-2-cyclopentylamino-5-(2-methyl-5-phenyl-thiophene-3-carbonyl)-thiophene-3-carbonitrile], for which the IC50 in assay [1] (setting [3]) and in assay [2] (setting [4]) was below 10 µM in each case.
On to `N#Cc1c(NC2CCCC2)sc(C(=O)c2csc(-c3ccccc3)n2)c1N` [Compound 1-235, 4-Amino-2-cyclopentylamino-5-(2-phenyl-thiazole-4-carbonyl)-thiophene-3-carbonitrile], for which the IC50 in assay [1] (setting [3]) and in assay [2] (setting [4]) was below 10 µM in each case.
On to `CCOC(=O)c1cc(C(=O)c2sc(Nc3ccc(OC)cc3)nc2N)on1` [Compound 2-2, 5-[4-Amino-2-(4-methoxy-phenylamino)-thiazole-5-carbonyl]-isoxazole-3-carboxylic acid ethyl ester], for which the IC50 in assay [1] (setting [5]) and in assay [2] (setting [6]) was below 10 µM in each case.
For the compound `CCOC(=O)c1cc(C(=O)c2sc(Nc3ccc(Oc4ccccc4)cc3)nc2N)on1` [Compound 2-3, 5-[4-Amino-2-(4-phenoxy-phenylamino)-thiazole-5-carbonyl]-isoxazole-3-carboxylic acid ethyl ester], the IC50 in assay [1] (setting [5]) and in assay [2] (setting [6]) was above 10 µM throughout.
With `CCOC(=O)c1cc(C(=O)c2sc(NC3CCCC3)nc2N)on1` [Compound 2-4, 5-(4-Amino-2-cyclopentylamino-thiazole-5-carbonyl)-isoxazole-3-carboxylic acid ethyl ester], the IC50 in assay [1] (setting [5]) and in assay [2] (setting [6]) was below 10 µM throughout.
With `CCOC(=O)c1cc(C(=O)c2sc(NC3CC3)nc2N)on1` [Compound 2-5, 5-(4-Amino-2-cyclopropylamino-thiazole-5-carbonyl)-isoxazole-3-carboxylic acid ethyl ester], the IC50 in assay [1] (setting [5]) and in assay [2] (setting [6]) was below 10 µM in each case.
In the case of `COc1ccc(Nc2nc(N)c(C(=O)c3cc(-c4ccccc4)no3)s2)cc1` [Compound 2-7, [4-Amino-2-(4-methoxy-phenylamino)-thiazol-5-yl]-(3-phenyl-isoxazol-5-yl)-methanone], the IC50 in assay [1] (setting [5]) and in assay [2] (setting [6]) was below 10 µM in each case.
In the case of `Nc1nc(NC2CC2)sc1C(=O)c1cc(-c2ccccc2)no1` [Compound 2-10, (4-Amino-2-cyclopropylamino-thiazol-5-yl)-(3-phenyl-isoxazol-5-yl)-methanone], the IC50 in assay [1] (setting [5]) and in assay [2] (setting [6]) was below 10 µM each time.
Regarding `CC(C)Nc1nc(N)c(C(=O)c2cc(-c3ccccc3)no2)s1` [Compound 2-11, (4-Amino-2-isopropylamino-thiazol-5-yl)-(3-phenyl-isoxazol-5-yl)-methanone], the IC50 in assay [1] (setting [5]) and in assay [2] (setting [6]) was below 10 µM each time.
For the compound `Nc1nc(NC2CCCC2)sc1C(=O)c1cc(-c2ccc(Cl)cc2)no1` [Compound 2-12, (4-Amino-2-cyclopentylamino-thiazol-5-yl)-[3-(4-chloro-phenyl)-isoxazol-5-yl]-methanone], the IC50 in assay [1] (setting [5]) and in assay [2] (setting [6]) was below 10 µM throughout.
Take `CC(C)Nc1nc(N)c(C(=O)c2cc(-c3ccc(Cl)cc3)no2)s1` [Compound 2-13, (4-Amino-2-isopropylamino-thiazol-5-yl)-[3-(4-chloro-phenyl)-isoxazol-5-yl]-methanone]: the IC50 in assay [1] (setting [5]) and in assay [2] (setting [6]) was below 10 µM in each case.
With `CC(C)Nc1nc(N)c(C(=O)c2cc(-c3ccc(Cl)c(Cl)c3)no2)s1` [Compound 2-14, (4-Amino-2-isopropylamino-thiazol-5-yl)-[3-(3,4-dichloro-phenyl)-isoxazol-5-yl]-methanone], the IC50 in assay [1] (setting [5]) and in assay [2] (setting [6]) was below 10 µM each time.
Turning to `CC(C)CNc1nc(N)c(C(=O)c2cc(-c3ccc(Cl)c(Cl)c3)no2)s1` [Compound 2-15, (4-Amino-2-isobutylamino-thiazol-5-yl)-[3-(3,4-dichloro-phenyl)-isoxazol-5-yl]-methanone], the IC50 in assay [1] (setting [5]) and in assay [2] (setting [6]) was below 10 µM throughout.

(Values after patent US7585859B2, “PDE4B inhibitors and uses therefor” (Plexxikon, Inc., priority 2004, dated 2009).)
